Test results from BindingDB's records for doi:10.1016/0960-894X(95)00327-P (1995).

What was measured:
[1] = target: Gastrin/cholecystokinin type B receptor (Cavia porcellus); experiment: Binding activity towards cholecystokinin-B (CCK-B) receptor in guinea pig cortex
[2] = target: Gastrin/cholecystokinin type B receptor (Cavia porcellus); experiment: as above; remark: listed apart in the source

SMILES	IC50 [1] [nM]	IC50 [2] [nM]
Cc1ccc2c(c1)N(CC(=O)NC(C)(C)C)C(=O)[C@H](NC(=O)Nc1cccc(-c3nnn[nH]3)c1)C[C@@H]2Cc1ccccc1 [2-((3R,5S)-5-Benzyl-8-methyl-2-oxo-3-{3-[3-(1H-tetrazol-5-yl)-phenyl]-ureido}-2,3,4,5-tetrahydro-benzo[b]azepin-1-yl)-N-tert-butyl-acetamide]	1.7	
Cc1ccc2c(c1)N(CC(=O)NC(C)(C)C)C(=O)[C@H](NC(=O)Nc1cccc(C(=O)NS(=O)(=O)c3ccccc3)c1)C[C@@H]2c1ccccc1 [2-{(3R,5R)-3-[3-(3-Benzenesulfonylaminocarbonyl-phenyl)-ureido]-8-methyl-2-oxo-5-phenyl-2,3,4,5-tetrahydro-benzo[b]azepin-1-yl}-N-tert-butyl-acetamide]	4.8	
COC(=O)c1cccc(NC(=O)N[C@@H]2C[C@H](C3CCCCC3)c3ccc(C)cc3N(CC(=O)NC(C)(C)C)C2=O)c1 [3-{3-[(3R,5R)-1-(tert-Butylcarbamoyl-methyl)-5-cyclohexyl-8-methyl-2-oxo-2,3,4,5-tetrahydro-1H-benzo[b]azepin-3-yl]-ureido}-benzoic acid methyl ester]	0.6	
Cc1ccc2c(c1)N(CC(=O)NC(C)(C)C)C(=O)[C@H](NC(=O)Nc1cccc(C(=O)O)c1)C[C@@H]2C1CCCCC1 [3-{3-[(3R,5R)-1-(tert-Butylcarbamoyl-methyl)-5-cyclohexyl-8-methyl-2-oxo-2,3,4,5-tetrahydro-1H-benzo[b]azepin-3-yl]-ureido}-benzoic acid]		0.1
COC(=O)c1cccc(NC(=O)N[C@@H]2C[C@H](c3ccccc3)c3ccc(C)cc3N(CC(=O)NC(C)(C)C)C2=O)c1 [3-{3-[(3R,5R)-1-(tert-Butylcarbamoyl-methyl)-8-methyl-2-oxo-5-phenyl-2,3,4,5-tetrahydro-1H-benzo[b]azepin-3-yl]-ureido}-benzoic acid methyl ester]	1.4	
Cc1ccc2c(c1)N(CC(=O)NC(C)(C)C)C(=O)[C@H](NC(=O)Nc1cccc(C(=O)O)c1)C[C@@H]2c1ccccc1 [3-{3-[(3R,5R)-1-(tert-Butylcarbamoyl-methyl)-8-methyl-2-oxo-5-phenyl-2,3,4,5-tetrahydro-1H-benzo[b]azepin-3-yl]-ureido}-benzoic acid]	2.7	
Cc1ccc2c(c1)N(CC(=O)NC(C)(C)C)C(=O)[C@H](NC(=O)Nc1cccc(-c3nnn[nH]3)c1)C[C@@H]2C1CCCCC1 [N-tert-Butyl-2-((3R,5R)-5-cyclohexyl-8-methyl-2-oxo-3-{3-[3-(1H-tetrazol-5-yl)-phenyl]-ureido}-2,3,4,5-tetrahydro-benzo[b]azepin-1-yl)-acetamide]	0.22	
Cc1ccc2c(c1)N(CC(=O)NC(C)(C)C)C(=O)[C@H](NC(=O)Nc1cccc(-c3nnn[nH]3)c1)C[C@@H]2C(C)C [N-tert-Butyl-2-((3R,5R)-5-isopropyl-8-methyl-2-oxo-3-{3-[3-(1H-tetrazol-5-yl)-phenyl]-ureido}-2,3,4,5-tetrahydro-benzo[b]azepin-1-yl)-acetamide]	0.98	
Cc1ccc2c(c1)N(CC(=O)NC(C)(C)C)C(=O)[C@H](NC(=O)Nc1cccc(-c3nnn[nH]3)c1)C[C@@H]2c1ccccc1 [N-tert-Butyl-2-((3R,5R)-8-methyl-2-oxo-5-phenyl-3-{3-[3-(1H-tetrazol-5-yl)-phenyl]-ureido}-2,3,4,5-tetrahydro-benzo[b]azepin-1-yl)-acetamide]	0.81	
Cc1ccc2c(c1)N(CC(=O)NC(C)(C)C)C(=O)[C@H](NC(=O)Nc1cccc(C(=O)NS(=O)(=O)c3ccccc3C)c1)C[C@@H]2c1ccccc1 [N-tert-Butyl-2-((3R,5R)-8-methyl-2-oxo-5-phenyl-3-{3-[3-(toluene-2-sulfonylaminocarbonyl)-phenyl]-ureido}-2,3,4,5-tetrahydro-benzo[b]azepin-1-yl)-acetamide]	7.9	
CCS(=O)(=O)NC(=O)c1cccc(NC(=O)N[C@@H]2C[C@H](c3ccccc3)c3ccc(C)cc3N(CC(=O)NC(C)(C)C)C2=O)c1 [N-tert-Butyl-2-{(3R,5R)-3-[3-(3-ethanesulfonylaminocarbonyl-phenyl)-ureido]-8-methyl-2-oxo-5-phenyl-2,3,4,5-tetrahydro-benzo[b]azepin-1-yl}-acetamide]	1	
Cc1ccc2c(c1)N(CC(=O)NC(C)(C)C)C(=O)[C@H](NC(=O)Nc1cccc(C(=O)NS(C)(=O)=O)c1)C[C@@H]2c1ccccc1 [N-tert-Butyl-2-{(3R,5R)-3-[3-(3-methanesulfonylaminocarbonyl-phenyl)-ureido]-8-methyl-2-oxo-5-phenyl-2,3,4,5-tetrahydro-benzo[b]azepin-1-yl}-acetamide]	0.88	
Cc1ccc2c(c1)N(CC(=O)NC(C)(C)C)C(=O)[C@H](NC(=O)Nc1cccc(C(=O)NS(C)(=O)=O)c1)C[C@@H]2C1CCCCC1 [N-tert-Butyl-2-{(3R,5R)-5-cyclohexyl-3-[3-(3-methanesulfonylaminocarbonyl-phenyl)-ureido]-8-methyl-2-oxo-2,3,4,5-tetrahydro-benzo[b]azepin-1-yl}-acetamide]	0.26	
Cc1ccc2c(c1)N(CC(=O)NC(C)(C)C)C(=O)[C@H](NC(=O)Nc1cccc(C(=O)NS(=O)(=O)Cc3ccccc3)c1)C[C@@H]2c1ccccc1 [N-tert-Butyl-2-{(3R,5R)-8-methyl-2-oxo-5-phenyl-3-[3-(3-phenylmethanesulfonylaminocarbonyl-phenyl)-ureido]-2,3,4,5-tetrahydro-benzo[b]azepin-1-yl}-acetamide]	4.2	
Cc1ccc2c(c1)N(CC(=O)NC(C)(C)C)C(=O)[C@H](NC(=O)Nc1cccc(C(=O)NS(=O)(=O)C(F)(F)F)c1)C[C@@H]2c1ccccc1 [N-tert-Butyl-2-{(3R,5R)-8-methyl-2-oxo-5-phenyl-3-[3-(3-trifluoromethanesulfonylaminocarbonyl-phenyl)-ureido]-2,3,4,5-tetrahydro-benzo[b]azepin-1-yl}-acetamide]	5.1	
